Usually IC50 stands for the concentration needed to halve the response being measured. The AC50 is the midpoint of the concentration-response curve, whichever way the signal moves. Broadly, the EC50 is the concentration that produces a half-maximal response.

The results in this text go back to ChEMBL document CHEMBL1201862, “PubChem BioAssay data set” (2004).

Holding throughout (assay type): functional
The target in one experiment is T1, Bcl-2-related protein A1 (Mus musculus, UniProt Q07440).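 Further: confirmatory dose–response counterscreen on Bfl-1, used to check hits from a UBC13 polyubiquitin inhibitor campaign.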
T1 sequence (Q07440 whole entry): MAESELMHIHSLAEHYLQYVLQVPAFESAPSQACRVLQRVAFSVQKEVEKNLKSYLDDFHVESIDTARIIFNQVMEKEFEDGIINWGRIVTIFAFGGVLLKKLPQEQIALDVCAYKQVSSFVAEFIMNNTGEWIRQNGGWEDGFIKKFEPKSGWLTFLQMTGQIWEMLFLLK

Experiment [1] addresses T2, Ubiquitin-conjugating enzyme E2 N (Homo sapiens, UniProt P61088).
T2 sequence (P61088 whole entry): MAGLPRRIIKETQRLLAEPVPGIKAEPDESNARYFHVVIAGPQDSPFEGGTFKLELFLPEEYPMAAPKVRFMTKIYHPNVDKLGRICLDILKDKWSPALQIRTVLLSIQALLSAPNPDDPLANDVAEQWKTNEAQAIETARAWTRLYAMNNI

Experiment [2] deals with T2, Ubiquitin-conjugating enzyme E2 N. This is another data set of the same source.
The nature of experiment [3]: Luminescence Cell-Based Dose Retest to Confirm Inhibitors of Cancer Stem Cells. [Related pubchem assays (depositor defined):AID2717, AID2721]. Conditions: Homo sapiens.
In experiment [4] the target is Glucose-6-phosphate 1-dehydrogenase (Homo sapiens, UniProt P11413). Kind of experiment: inhibition of Homo sapiens G6PD, dose series – biochemical, fluorescence, selectivity assay for P. falciparum G6PD inhibitor project, dose response (AID 504792).
The target in experiment [5] is Voltage-dependent T-type calcium channel subunit alpha-1H (Homo sapiens, UniProt O95180). In words: inhibition of CACNA1H calcium flux – cell-based, SynthLib3 library, HEK293 Cav3.2, fluorescence (AID 493041). (A change in cytosolic calcium serves as a functional read-out for many receptors and channels.)

Activity calls are given as the source filed them.
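Wherever AC50 is given: cells exposed to compound for roughly 70 hours or longer before luminescence read.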

Chain of Voltage-dependent T-type calcium channel subunit alpha-1H (O95180 whole entry): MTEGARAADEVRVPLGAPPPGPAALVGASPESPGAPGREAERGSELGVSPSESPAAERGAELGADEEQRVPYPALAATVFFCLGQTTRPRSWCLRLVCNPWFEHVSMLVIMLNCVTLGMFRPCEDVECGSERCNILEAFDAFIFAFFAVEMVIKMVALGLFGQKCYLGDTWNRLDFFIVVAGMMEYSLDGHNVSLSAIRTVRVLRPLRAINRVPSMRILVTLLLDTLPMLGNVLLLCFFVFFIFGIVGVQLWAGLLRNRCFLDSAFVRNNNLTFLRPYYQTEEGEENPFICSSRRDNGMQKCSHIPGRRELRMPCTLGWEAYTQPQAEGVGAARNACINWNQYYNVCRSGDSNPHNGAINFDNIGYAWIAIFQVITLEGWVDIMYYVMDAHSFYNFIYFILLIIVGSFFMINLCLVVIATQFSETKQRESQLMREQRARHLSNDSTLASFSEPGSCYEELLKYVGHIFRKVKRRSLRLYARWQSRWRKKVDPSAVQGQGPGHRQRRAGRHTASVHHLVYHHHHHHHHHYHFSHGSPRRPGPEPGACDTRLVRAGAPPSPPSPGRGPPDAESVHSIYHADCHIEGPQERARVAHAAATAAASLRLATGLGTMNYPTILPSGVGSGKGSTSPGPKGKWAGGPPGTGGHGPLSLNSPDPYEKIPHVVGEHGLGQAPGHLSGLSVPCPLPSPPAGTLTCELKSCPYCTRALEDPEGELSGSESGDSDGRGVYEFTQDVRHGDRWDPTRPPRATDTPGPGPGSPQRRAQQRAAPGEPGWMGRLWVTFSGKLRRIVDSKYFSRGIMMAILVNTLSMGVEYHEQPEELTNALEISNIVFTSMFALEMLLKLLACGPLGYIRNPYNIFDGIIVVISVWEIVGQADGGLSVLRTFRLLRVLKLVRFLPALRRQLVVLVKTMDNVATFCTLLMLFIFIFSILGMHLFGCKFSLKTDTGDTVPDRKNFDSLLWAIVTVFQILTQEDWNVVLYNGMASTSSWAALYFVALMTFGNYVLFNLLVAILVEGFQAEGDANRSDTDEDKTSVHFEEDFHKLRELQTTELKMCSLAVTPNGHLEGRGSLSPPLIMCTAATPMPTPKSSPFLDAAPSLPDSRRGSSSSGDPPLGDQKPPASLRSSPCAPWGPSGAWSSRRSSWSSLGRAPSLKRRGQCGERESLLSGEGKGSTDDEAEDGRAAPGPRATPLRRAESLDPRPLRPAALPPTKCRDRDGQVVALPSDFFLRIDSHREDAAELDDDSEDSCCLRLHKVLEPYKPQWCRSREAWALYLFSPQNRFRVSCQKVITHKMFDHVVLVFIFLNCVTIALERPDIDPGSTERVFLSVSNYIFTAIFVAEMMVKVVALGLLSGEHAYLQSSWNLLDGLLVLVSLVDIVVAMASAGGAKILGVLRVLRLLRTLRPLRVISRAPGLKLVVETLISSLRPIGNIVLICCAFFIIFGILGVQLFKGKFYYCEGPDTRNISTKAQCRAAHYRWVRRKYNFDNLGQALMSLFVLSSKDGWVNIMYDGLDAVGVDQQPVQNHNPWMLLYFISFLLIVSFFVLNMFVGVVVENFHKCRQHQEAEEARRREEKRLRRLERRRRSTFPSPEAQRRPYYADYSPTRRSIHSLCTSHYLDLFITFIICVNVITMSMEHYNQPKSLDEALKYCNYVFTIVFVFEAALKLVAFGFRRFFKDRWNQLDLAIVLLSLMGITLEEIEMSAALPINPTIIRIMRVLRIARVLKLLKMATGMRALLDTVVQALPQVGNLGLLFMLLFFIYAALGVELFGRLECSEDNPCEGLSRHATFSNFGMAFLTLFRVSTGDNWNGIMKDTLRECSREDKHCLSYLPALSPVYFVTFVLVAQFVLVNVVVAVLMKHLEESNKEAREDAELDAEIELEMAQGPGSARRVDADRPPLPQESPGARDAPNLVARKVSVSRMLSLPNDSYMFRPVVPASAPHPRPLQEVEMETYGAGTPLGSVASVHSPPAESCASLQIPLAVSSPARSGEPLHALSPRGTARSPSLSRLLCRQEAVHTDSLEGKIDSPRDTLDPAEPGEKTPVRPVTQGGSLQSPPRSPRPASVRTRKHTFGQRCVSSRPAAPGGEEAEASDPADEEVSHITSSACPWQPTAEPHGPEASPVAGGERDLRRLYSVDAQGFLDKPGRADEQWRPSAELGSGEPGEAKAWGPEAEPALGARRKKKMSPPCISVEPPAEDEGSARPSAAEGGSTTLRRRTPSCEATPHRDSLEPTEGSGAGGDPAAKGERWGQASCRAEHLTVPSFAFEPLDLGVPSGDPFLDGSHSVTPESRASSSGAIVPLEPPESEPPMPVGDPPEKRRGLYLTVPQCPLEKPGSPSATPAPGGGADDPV
Chain of Glucose-6-phosphate 1-dehydrogenase (P11413 whole entry): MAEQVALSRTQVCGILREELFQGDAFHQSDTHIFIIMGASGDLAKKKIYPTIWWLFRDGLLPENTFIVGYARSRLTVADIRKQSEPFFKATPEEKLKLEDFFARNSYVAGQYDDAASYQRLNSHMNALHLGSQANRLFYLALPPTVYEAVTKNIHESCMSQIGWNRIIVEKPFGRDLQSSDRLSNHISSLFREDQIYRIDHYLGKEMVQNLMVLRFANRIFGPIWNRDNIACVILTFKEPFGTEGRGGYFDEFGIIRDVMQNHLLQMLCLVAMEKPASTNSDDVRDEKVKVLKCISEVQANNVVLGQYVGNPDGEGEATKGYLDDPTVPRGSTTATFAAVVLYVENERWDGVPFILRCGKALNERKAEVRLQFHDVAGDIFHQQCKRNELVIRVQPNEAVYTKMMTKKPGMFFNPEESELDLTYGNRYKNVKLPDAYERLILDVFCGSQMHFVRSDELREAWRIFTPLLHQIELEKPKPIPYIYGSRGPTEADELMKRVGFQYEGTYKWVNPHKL

With `COC(=O)c1c(-c2ccc(SC)cc2)sc2ccc(OC)cc12`, the IC50 was > 20 µM (inactive) on Bcl-2-related protein A1, > 20 µM (inactive) in experiment [1] and 18.9 µM (active) in experiment [2].

As to `NCCNc1ccc(C(=O)N2c3ccccc3Sc3ccccc32)cc1[N+](=O)[O-]`, the IC50 at Bcl-2-related protein A1 is > 20 µM (inactive); in experiment [1], 10.9 µM (active); in experiment [4], > 80 µM (inactive); in experiment [2], 9.58 µM (active). The AC50 in experiment [3] is 6.81 µM (active).

With `CCCN1C[C@@H]2C(CNC(=O)c3cc(Cl)cc(Cl)c3)[C@@H]2C1` (stereo not given in full), the EC50 in experiment [5] was 10 µM (active).

Consider `CC(Cc1nnc(NC(=O)COc2ccc(F)cc2Cl)o1)CC(C)(C)C` (stereo not given), for which, in experiment [5], the EC50 is 1.2 µM (active).
